Data as given in patent publication EP0116439A2, “Fatty acid containing hair tonic composition” (priority 1983, dated 1984).

How the values were obtained:
[1] = target: testosterone 5α-reductase; test: testosterone 5α-reductase inhibitory activity (conversion of labelled testosterone to 5α-dihydrotestosterone); assay type: biochemical, rats; settings: microsome from rat prostate gland cells, 25°C, 60 minutes, pH 6.6
Procedure: The Sa-reductase inhibitory activity was determined as follows.
Prostate gland cells of rats were crushed and a specimen of testosterone 5α-reductase was then prepared by separating microsome from the crushed liquid mixture. The conversion of the testosterone to 5α-dihydrotestosterone by the use of the above-prepared enzyme specimen was monitored by radioisotopically labelled testosterone. The reaction mixture was extracted with ethyl acetate and the extract was developed twice by silica gel thin layer chromatography (solvent system, dichloromethane: cyclohexane:acetone = 15:4:1). The amount of 5α-dihydrotestosterone were determined from the intensities of the radioactivity.
A 30 µl amount of a 0.05 M phosphate buffer (pH = 6.6), 10 µl of an enzyme specimen, 8.5 pmol of labelled testosterone, 50 nmol of a reduced form of NADP (nicotinamide adenine dinucleotide phosphate), and 10 µl of a test sample were mixed (final volume = 50 µl). The mixture was included at a temperature of 25°C for 60 minutes.
The reaction was stopped by the addition of 100 ul of ethyl acetate, and the reaction mixture was extracted by vigorous shaking. The extract was developed in the same manner as mentioned above and the intensity of the radioisotope was measured by using a scintillation counter.
The above-mentioned determination was applied to the samples having various concentrations. The 5a--reductase inhibitory activity was obtained as a inhibitory rate (%) or a 50% inhibitory concentration (^IC50).

male rabbits = test: fur growth on shorn back of rabbits; assay type: in vivo; set-up: Difference b, Average: unit not given here; settings: for Grown fur length Test side a', Average: 0.2% fatty acid solution in 80% aqueous ethanol; for Difference b, Average: test side minus control side, 0.2% fatty acid solution
Procedure: Ten week old male rabbits were shorn on the back. A 0.2% fatty acid solution in 80% aqueous ethanol solution was applied, twice a day, to a half-side of the shorn portion of each rabbit for one week. As a control, a 80% aqueous ethanol solution was also applied, twice a day, to the other half-side of the shorn portion of each rabbit for one week (two week for linoleic acid). The length of the grown fur was measured.

Compound: CCCCC/C=C\C/C=C\C/C=C\C/C=C\CCCC(=O)O [Arachidonic acid, arachidonic acid]
- IC50 [1]: 150 µM
- Grown fur length Test side a', Average (male rabbits; twice a day for one week): 7.561^*2
- Difference b, Average (male rabbits; twice a day for one week): 0.78

Compound: CCCCCCCCCCCC(=O)O [Lauric acid, lauric acid]
- IC50 [1]: 600 µM
- Grown fur length Test side a', Average (male rabbits; twice a day for one week): 5.667^*2
- Difference b, Average (male rabbits; twice a day for one week): 0.776

Compound: CCCCC/C=C\C/C=C\CCCCCCCC(=O)O [Linoleic acid, linoleic acid]
- IC50 [1]: 180 µM
- Grown fur length Test side a', Average (male rabbits; twice a day, two week): 9.98^*2
- Difference b, Average (male rabbits; twice a day, two week): 0.43

Compound: CC/C=C\C/C=C\C/C=C\CCCCCCCC(=O)O [Linolenic acid, linolenic acid]
- Grown fur length Test side a', Average (male rabbits; twice a day for one week): 5.46^*2
- Difference b, Average (male rabbits; twice a day for one week): 0.45

Compound: CCCCCCCCCCCCCC(=O)O [Myristic acid, myristic acid]
- IC50 [1]: 1800 µM
- Grown fur length Test side a', Average (male rabbits; twice a day for one week): 6.583^*2
- Difference b, Average (male rabbits; twice a day for one week): 0.661

Compound: CCCCCCCC/C=C\CCCCCCCC(=O)O [Oleic Acid, oleic acid]
- IC50 [1]: 320 µM
- Grown fur length Test side a', Average (male rabbits; twice a day for one week): 6.102^*2
- Difference b, Average (male rabbits; twice a day for one week): 0.626

Compound: CCCCCCCCCCCCCCCC(=O)O [Palmitic acid, palmitic acid]
- IC50 [1]: 300 µM
- Grown fur length Test side a', Average (male rabbits; twice a day for one week): 6.056^*2
- Difference b, Average (male rabbits; twice a day for one week): 0.958

Compound: CCCCCC/C=C\CCCCCCCC(=O)O [Palmitoleic acid, palmitoleic acid]
- IC50 [1]: 180 µM
- Grown fur length Test side a', Average (male rabbits; twice a day for one week): 8.051^*2
- Difference b, Average (male rabbits; twice a day for one week): 0.862

Compound: CCC=CC=CC=CC=CCCCCCCCC(=O)O [Parinaric acid, parinaric acid]
- IC50 [1]: 1100 µM
- Grown fur length Test side a', Average (male rabbits; twice a day for one week): 6.83^*2
- Difference b, Average (male rabbits; twice a day for one week): 0.60

Compound: CCCCCCCCCCC/C=C\CCCCC(=O)O [Petroselinic acid, petroselinic acid]
- IC50 [1]: 280 µM
- Grown fur length Test side a', Average (male rabbits; twice a day for one week): 6.66^*2
- Difference b, Average (male rabbits; twice a day for one week): 0.50

Compound: CCCCCCCCCC(=O)O [n-Capric acid, n-capric acid]
- IC50 [1]: 500 µM
- Grown fur length Test side a', Average (male rabbits; twice a day for one week): 7.542^*2
- Difference b, Average (male rabbits; twice a day for one week): 0.557

Compound: CCCCCCCC(=O)O [n-Caprylic acid, n-caprylic acid]
- IC50 [1]: 1700 µM
- Grown fur length Test side a', Average (male rabbits; twice a day for one week): 5.38^*2
- Difference b, Average (male rabbits; twice a day for one week): 0.32
